Assay results reported in the PolyMetriX glass transition set.
± gives the standard deviation of the reports.

With `*Oc1ccc(/C(=C/c2ccc(-c3ccc(/C=C(\c4ccccc4)c4ccc(OC(=O)CCCCC(*)=O)cc4)cc3)cc2)c2ccccc2)cc1` (repeat unit) as the compound, how does the glass transition temperature read?
The glass transition temperature was 128.00 °C.

With `*CC(*)(C)C(=O)Oc1ccc(/N=N/c2ccc(OC)cc2)cc1` (repeat unit) as the compound, how does the glass transition temperature read?
The glass transition temperature was 120.00 °C.

With `*c1ccc(Oc2ccc(N3C(=O)c4ccc(Oc5c(C)cc(Cc6cc(C)c(Oc7ccc8c(c7)C(=O)N(*)C8=O)c(C)c6)cc5C)cc4C3=O)cc2)cc1` (repeat unit) as the compound, how does the glass transition temperature read?
Its glass transition temperature is 266.00 °C.

For `*CC(*)c1ccccc1C(=O)NC` (repeat unit), which glass transition temperature is on record?
The glass transition temperature was 189.00 °C.

For `*CCN(*)C(=O)C1(c2ccc(Cl)cc2)CCC1` (repeat unit), which glass transition temperature is on record?
Its glass transition temperature is 112.00 °C.

Which glass transition temperature does the source give for `*c1ccc(-c2cc(C(C)(C)C)c(Oc3ccc(N4C(=O)c5ccc(Oc6ccc7c(c6)C(=O)N(*)C7=O)cc5C4=O)cc3C(F)(F)F)c(C(C)(C)C)c2)cc1` (repeat unit) here?
Its glass transition temperature is 353.00 °C.

Which glass transition temperature does the source give for `*C(=O)Nc1ccc(S(=O)(=O)c2ccc(NC(=O)c3ccc4c(c3)C(=O)N(c3ccc(S(=O)(=O)c5ccc(N6C(=O)c7ccc(*)cc7C6=O)cc5)cc3)C4=O)cc2)cc1` (repeat unit) here?
Its glass transition temperature is 307.00 °C.

With `*CCCCCCCCCCOC(=O)CCCCCNC(=O)CCCCC(=O)NCCCCCC(=O)O*` (repeat unit) as the compound, how does the glass transition temperature read?
Its glass transition temperature is -12.00 °C.

For `*Oc1ccc(-c2ccc(Oc3ccc4ccccc4c3-c3c(*)ccc4ccccc34)c3ccccc23)c2ccccc12` (repeat unit), which glass transition temperature is on record?
The glass transition temperature was 301.00 °C.

Which glass transition temperature does the source give for `*CCCCCOC(=O)c1ccccc1C(=O)[O][Pb][O]C(=O)c1ccccc1C(=O)OCCCCCOC(=O)NCCCCCCNC(=O)O*` (repeat unit) here?
The glass transition temperature was -19.20 °C.

Which glass transition temperature does the source give for `*Oc1cc(OC(=O)c2ccc(OCCC)cc2)c(OC(=O)CCCC(*)=O)cc1OC(=O)c1ccc(OCCC)cc1` (repeat unit) here?
The glass transition temperature was 72.00 °C.

With `*Oc1ccc(CC(NC(=O)Cc2ccc(OC(=O)COCCOCC(*)=O)cc2)C(=O)OCCCCCC)cc1` (repeat unit) as the compound, how does the glass transition temperature read?
Its glass transition temperature is 31.00 °C.

Which glass transition temperature does the source give for `*CC(*)(C)C(=O)OCCCCCCOc1ccc(C(=O)Oc2ccc(C(=O)/C=C/c3c(C)c4ccccc4n3CCCC)cc2)cc1` (repeat unit) here?
Its glass transition temperature is 85.00 °C.

With `*Oc1ccc(S(=O)(=O)c2ccc(Oc3ccc(/C=N/c4ccc(Oc5ccc(/N=C/c6ccc(*)cc6)cc5)cc4)cc3)cc2)cc1` (repeat unit) as the compound, how does the glass transition temperature read?
The glass transition temperature was 162.00 °C.

With `*CCOC(=O)c1ccc(C(C)(CC)c2ccc(C(=O)O*)cc2)cc1` (repeat unit) as the compound, how does the glass transition temperature read?
Its glass transition temperature is 95.00 °C.

For `*c1cccc(C(=O)Nc2ccc(Oc3ccc(NC(=O)c4cccc(N5C(=O)c6ccc(-c7cccc8c7C(=O)N(*)C8=O)cc6C5=O)c4)cc3)cc2)c1` (repeat unit), which glass transition temperature is on record?
The glass transition temperature was 291.00 °C.

For `*CCOc1ccc(S(=O)(=O)c2ccc(OCCOP(=O)(O*)Oc3ccc(C)cc3)cc2)cc1` (repeat unit), which glass transition temperature is on record?
Its glass transition temperature is 46.00 °C.

With `*OC(C)COC(*)=O` (repeat unit) [Poly(propylene carbonate)] as the compound, how does the glass transition temperature read?
The glass transition temperature was 35.73 ± 1.6 °C.

With `*c1cc(N2C(=O)c3ccc(Oc4cc5ccccc5cc4Oc4ccc5c(c4)C(=O)N(*)C5=O)cc3C2=O)cc(C(F)(F)F)c1` (repeat unit) as the compound, how does the glass transition temperature read?
The glass transition temperature was 250.00 °C.

With `*OC(=O)c1cccc(C(=O)OC2CC3CC(*)CC(C2)O3)c1` (repeat unit) as the compound, how does the glass transition temperature read?
Its glass transition temperature is 113.00 °C.

For `*CC1CCC(CNC(=O)CCCCC(=O)N*)CC1` (repeat unit), which glass transition temperature is on record?
The glass transition temperature was 113.00 °C.

For `*Oc1cc(C(C)(C)C)c(Oc2ccc(C(=O)Nc3c(C)cc(Cc4cc(C)c(NC(=O)c5ccc(*)cc5)c(C(C)C)c4)cc3C(C)C)cc2)cc1C(C)(C)C` (repeat unit), which glass transition temperature is on record?
The glass transition temperature was 260.00 °C.

With `*c1ccc2c(c1)C(=O)N(c1ccc(C(=O)Nc3ccc(Oc4ccc(Oc5ccc(NC(=O)c6ccc(N7C(=O)c8ccc(C(*)(C(F)(F)F)C(F)(F)F)cc8C7=O)cc6)cc5)cc4)cc3)cc1)C2=O` (repeat unit) as the compound, how does the glass transition temperature read?
Its glass transition temperature is 303.00 °C.

For `*Nc1ccc(NC(=O)c2cccc(C(=O)c3ccc(C(*)=O)cc3)c2)cc1` (repeat unit), which glass transition temperature is on record?
The glass transition temperature was 257.50 °C.

For `*c1ccc(Oc2ccc(N3C(=O)c4ccc(Oc5ccc6c(c5)C(=O)N(*)C6=O)cc4C3=O)cc2)cc1` (repeat unit), which glass transition temperature is on record?
Its glass transition temperature is 269.00 ± 14 °C.

For `*Oc1cccc2ccc(Oc3ccc(NC(=O)c4ccc(Oc5ccc(Oc6ccc(C(=O)Nc7ccc(*)cc7)cc6)cc5)cc4)cc3)cc12` (repeat unit), which glass transition temperature is on record?
The glass transition temperature was 224.00 °C.

Which glass transition temperature does the source give for `*Oc1ccc(Cc2ccc(OC(*)=O)c(C)c2)cc1C` (repeat unit) here?
The glass transition temperature was 51.00 °C.

For `*CC(*)OC(=O)C(Cl)(Cl)Cl` (repeat unit), which glass transition temperature is on record?
Its glass transition temperature is 59.00 °C.

For `*CCN(*)C(=O)c1c(F)cccc1F` (repeat unit), which glass transition temperature is on record?
The glass transition temperature was 121.50 °C.

For `*c1ccc(Oc2ccc(-c3cccc(-c4ccc(Oc5ccc(-c6c7c(c(*)c8ccccc68)C(=O)N(c6ccccc6)C7=O)cc5)c(C(F)(F)F)c4)c3)cc2C(F)(F)F)cc1` (repeat unit), which glass transition temperature is on record?
Its glass transition temperature is 271.00 °C.

With `*C(=O)Nc1ccc(Oc2ccc(C3(c4ccc(Oc5ccc(NC(=O)c6ccc7c(c6)C(=O)N(c6cccc(N8C(=O)c9ccc(*)cc9C8=O)c6)C7=O)cc5)cc4)NC(=O)c4ccccc43)cc2)cc1` (repeat unit) as the compound, how does the glass transition temperature read?
The glass transition temperature was 320.00 °C.

For `*CC(*)OC(=O)OC([2H])([2H])[2H]` (repeat unit), which glass transition temperature is on record?
The glass transition temperature was 55.00 °C.

With `*CC(*)(C)C(=O)Nc1ccc(C(=O)/C=C/c2ccc(OC)cc2)cc1` (repeat unit) as the compound, how does the glass transition temperature read?
Its glass transition temperature is 35.00 °C.

With `*C(=O)Nc1ccc(Oc2ccc(NC(=O)c3ccc4c(c3)C(=O)N(c3ccc(NC(=O)Nc5ccc(N6C(=O)c7ccc(*)cc7C6=O)cc5)cc3)C4=O)cc2)cc1` (repeat unit) as the compound, how does the glass transition temperature read?
Its glass transition temperature is 205.00 °C.

For `*Nc1cccc2c(NC(=O)c3cccc(C(*)=O)c3)cccc12` (repeat unit), which glass transition temperature is on record?
Its glass transition temperature is 325.00 °C.

Which glass transition temperature does the source give for `*c1ccc(Oc2ccc(C3(c4ccc(Oc5ccc(N6C(=O)c7ccc(Oc8ccc(C9(c%10ccc(Oc%11ccc%12c(c%11)C(=O)N(*)C%12=O)cc%10)CCCCCCCCCCC9)cc8)cc7C6=O)cc5)cc4)CCC(C(C)(C)C)CC3)cc2)cc1` (repeat unit) here?
The glass transition temperature was 254.00 °C.

For `*/C=C(/*)CCCOC(=O)c1cc(-c2ccc(OC)cc2)ccc1-c1ccc(OC)cc1` (repeat unit), which glass transition temperature is on record?
The glass transition temperature was 72.40 °C.

With `*C(=O)Nc1ccc(Cc2ccc(NC(=O)c3ccc4c(c3)C(=O)N(c3ccc(-c5sc(-c6ccc(N7C(=O)c8ccc(*)cc8C7=O)cc6)c(-c6ccccc6)c5-c5ccccc5)cc3)C4=O)cc2)cc1` (repeat unit) as the compound, how does the glass transition temperature read?
The glass transition temperature was 253.00 °C.

Which glass transition temperature does the source give for `*c1ccc2c(c1)C(=O)N(c1ccc(Oc3ccc(N4C(=O)c5ccc(C(F)(F)C(F)(F)C(F)(F)C(*)(F)F)cc5C4=O)cc3)cc1)C2=O` (repeat unit) here?
The glass transition temperature was 212.00 °C.

With `*CC(*)c1ccccc1` (repeat unit) [atactic polystyrene] as the compound, how does the glass transition temperature read?
The glass transition temperature was 95.96 ± 28 °C.

For `*Oc1ccc(-c2ccc(OC(=O)c3ccc(Oc4ccc(C5(c6ccc(Oc7ccc(C(*)=O)cc7)cc6)CCC(C(C)(C)C)CC5)cc4)cc3)cc2C)c(C)c1` (repeat unit), which glass transition temperature is on record?
Its glass transition temperature is 163.00 °C.

For `*c1ccc(C(=O)Oc2ccc3ccc(OC(=O)c4ccc(N5C(=O)CC(SCCOCCSC6CC(=O)N(*)C6=O)C5=O)cc4)cc3c2)cc1` (repeat unit), which glass transition temperature is on record?
Its glass transition temperature is 160.00 °C.

For `*Nc1ccc(-c2c(-c3ccc(-c4ccccc4)cc3)cc(-c3ccc(-c4cc(-c5ccc(-c6ccccc6)cc5)c(-c5ccc(NC(=O)c6ccc(C(*)=O)cc6)cc5)c(-c5ccc(-c6ccccc6)cc5)c4)cc3)cc2-c2ccc(-c3ccccc3)cc2)cc1` (repeat unit), which glass transition temperature is on record?
The glass transition temperature was 305.00 °C.

For `*CCCS(=O)(=O)c1ccc(/N=N/c2ccc(N(CCCC)CC(=O)O*)cc2)cc1` (repeat unit), which glass transition temperature is on record?
The glass transition temperature was 92.40 °C.

Which glass transition temperature does the source give for `*c1ccc2c(c1)C(=O)N(c1cc(N3C(=O)c4ccc(C(*)(C(F)(F)F)C(F)(F)F)cc4C3=O)ccc1OCCCCCCOc1ccc(-c3ccc(OCC)cc3)cc1)C2=O` (repeat unit) here?
The glass transition temperature was 150.30 °C.

With `*CCOCCOC(=O)c1ccccc1-c1ccccc1C(=O)O*` (repeat unit) as the compound, how does the glass transition temperature read?
The glass transition temperature was 17.00 °C.

With `*CCCCOC(=O)Nc1ccc(Cc2ccc(NC(=O)O*)cc2)cc1` (repeat unit) as the compound, how does the glass transition temperature read?
Its glass transition temperature is 109.00 °C.

For `*CCCC(=O)Oc1ccc(OC(=O)c2ccc3c(c2)C(=O)N(*)C3=O)cc1` (repeat unit), which glass transition temperature is on record?
Its glass transition temperature is 132.00 °C.

For `*Oc1ccc(/N=N/c2ccc(Cc3ccc(/N=N/c4ccc(OC(=O)c5ccc(/N=N/c6ccc(C(*)=O)cc6)cc5)cc4)cc3[N+](=O)[O-])c([N+](=O)[O-])c2)cc1` (repeat unit), which glass transition temperature is on record?
Its glass transition temperature is 160.00 °C.

With `*c1cc(C(=O)NCCCCCCCCCC)cc(N2C(=O)c3ccc(-c4ccc5c(c4)C(=O)N(*)C5=O)cc3C2=O)c1` (repeat unit) as the compound, how does the glass transition temperature read?
The glass transition temperature was 245.10 °C.

For `*CCCCCCN(C)C(=O)CCC(=O)N(*)C` (repeat unit), which glass transition temperature is on record?
The glass transition temperature was 7.50 °C.

Which glass transition temperature does the source give for `*CCOCCOc1ccc(C(=O)OC(=O)c2ccc(O*)cc2)cc1` (repeat unit) here?
Its glass transition temperature is 41.00 °C.

For `*CC(*)(C)C(=O)OCc1cccs1` (repeat unit), which glass transition temperature is on record?
Its glass transition temperature is 66.00 °C.

With `*Nc1cccc(NC(=O)c2cccc(C(*)=O)c2)c1` (repeat unit) as the compound, how does the glass transition temperature read?
The glass transition temperature was 275.00 °C.

For `*CC(*)c1ccc(CCCCCCCCCCCCCCCC)cc1` (repeat unit), which glass transition temperature is on record?
Its glass transition temperature is 4.50 °C.

For `*c1ccc2c(c1)C(=O)N(c1ccc(Oc3ccc(C(=O)c4ccc(Oc5ccc(N6C(=O)c7ccc(C(*)(C(F)(F)F)C(F)(F)F)cc7C6=O)cc5)cc4)cc3)cc1)C2=O` (repeat unit), which glass transition temperature is on record?
The glass transition temperature was 266.00 °C.

Which glass transition temperature does the source give for `*c1ccc(-c2nc3cc(Oc4ccc(NC(=O)c5cc(C(=O)Nc6ccc(Oc7ccc8nc(-c9ccccc9)c(-c9ccc(N%10C(=O)c%11ccc%12c%13c(ccc(c%11%13)C%10=O)C(=O)N(*)C%12=O)cc9)nc8c7)cc6)cc(N6C(=O)c7ccccc7C6=O)c5)cc4)ccc3nc2-c2ccccc2)cc1` (repeat unit) here?
The glass transition temperature was 345.00 °C.

Which glass transition temperature does the source give for `*O[Si](C)(C)c1ccc2cc([Si](*)(C)C)ccc2c1` (repeat unit) here?
The glass transition temperature was 29.00 °C.

With `*c1ccc(Oc2ccc(-n3c(=O)c4cc5c(=O)n(-c6ncc(*)s6)c(=O)c5cc4c3=O)cc2)cc1` (repeat unit) as the compound, how does the glass transition temperature read?
The glass transition temperature was 328.80 °C.

Which glass transition temperature does the source give for `*CC/C=C(/*)CCCCCCC` (repeat unit) here?
The glass transition temperature was -83.00 °C.

Which glass transition temperature does the source give for `*c1ccc(Cc2ccc(NC(=O)c3ccc(Oc4ccc5c(c4)C(=O)N(*)C5=O)cc3)cc2)cc1` (repeat unit) here?
Its glass transition temperature is 250.00 °C.
